Assay results: patent publication US11434222B2, “MAGL inhibitors” (H. LUNDBECK A/S, priority 2020, dated 2022)

Test: In vitro rat blood to plasma ratio
Format: in vitro ADME
Conditions: 1 μM test compound
Protocol: Brain disposition was evaluated in male Sprague-Dawley rats (n=3, standard body weight). Briefly, test compound was formulated as a simple suspension, in 0.5% HPMC in water, then administered by oral gavage (5 mg/kg, 5 mL/kg). Four hours post dosing, rats were sacrificed, and terminal blood and brain samples were taken. Blood was obtained via cardiac puncture (0.1 mL) and was added into 0.4 mL CH3CN for precipitation immediately. The samples were stored at −75+/−15° C. prior to analysis. Brain tissue samples were collected after animals were fully exsanguinated, and the tissues were washed with cold saline quickly. After sectioning, brain sections were immediately frozen in liquid nitrogen and stored at −75+/−15° C. prior to analysis. Blood and brain samples were analyzed by LC/MS/MS using an optimized analytical method. Concentrations of test compound in blood and brain were quantified against matrix matched calibration standards. The total blood, plasma, and brain concentration data are presented in Table 2 alongside the calculated brain Kp (total brain concentration:total plasma concentration ratio), the calculated brain kp,uu (unbound brain concentration:unbound plasma concentration ratio), the free fractions in rat plasma and brain, and the in vitro rat blood to plasma distribution profile. The total plasma concentration data were calculated from the total blood concentration data using rat blood to plasma ratio which was measured in vitro (1 μM test compound). For kp,uu determination, the free fraction in rat plasma and brain homogenate were measured in vitro by standard equilibrium dialysis (1 μM test compound and 6 h equilibration against buffer pH 7.4; for rat plasma analysis, 100 mM stock solution of diisopropyl fluorophosphate was added to the pre-warmed rat plasma prior to adding test article).

SMILES	blood plasma ratio at 1 μM
O=C(Nc1cccnn1)[C@H]1CC12CCN(C(=O)OC(C(F)(F)F)C(F)(F)F)CC2 [Example 6, 1,1,1,3,3,3-hexafluoropropan-2-yl (S)-1-(pyridazin-3-ylcarbamoyl)-6-azaspiro[2.5]octane-6-carboxylate]	0.72
O=C(NC1CCOCC1)[C@H]1CC12CCN(C(=O)OC(C(F)(F)F)C(F)(F)F)CC2 [Example 8, 1,1,1,3,3,3-hexafluoropropan-2-yl (S)-1-[(oxan-4-yl)carbamoyl]-6-azaspiro[2.5]octane-6-carboxylate]	0.96
